Measured values from the NIST ThermoML archive (doi:10.1016/j.jct.2007.11.011).

Assay: xn = mol fraction of the nth substance listed
Settings: Liquid

CCOS(=O)(=O)[O-].CCn1cc[n+](C)c1 [1-ethyl-3-methylimidazolium ethyl sulfate] + CO
mass density [kg/m3]
Settings	100 kPa	2500 kPa	5000 kPa	10000 kPa	15000 kPa	20000 kPa	25000 kPa	30000 kPa	35000 kPa
323.15 K, x1 = 0.04781	–	–	–	868.74	872.87	876.82	880.61	884.24	887.77
323.15 K, x1 = 0.1026	–	–	–	942.8	946.41	949.87	953.21	956.44	959.59
323.15 K, x1 = 0.1977	–	–	1024.01	1027.14	1030.2	1033.16	1036.04	1038.84	1041.58
323.15 K, x1 = 0.2432	–	–	1052.99	1055.97	1058.89	1061.72	1064.46	1067.16	1069.79
323.15 K, x1 = 0.3026	–	–	1084.11	1086.92	1089.69	1092.38	1094.99	1097.52	1100.04
323.15 K, x1 = 0.3887	–	–	1118.22	1120.88	1123.48	1126.02	1128.5	1130.9	1133.28
323.15 K, x1 = 0.485	–	–	1146.43	1148.93	1151.4	1153.83	1156.17	1158.47	1160.75
323.15 K, x1 = 0.589	–	–	1169.35	1171.75	1174.11	1176.44	1178.7	1180.91	1183.11
323.15 K, x1 = 0.7289	–	–	1192.7	1194.99	1197.27	1199.49	1201.68	1203.82	1205.91
323.15 K, x1 = 0.8521	–	–	1207.44	1209.67	1211.88	1214.04	1216.15	1218.23	1220.28
323.15 K, x1 = 0.9397	–	–	1217.06	1219.28	1221.46	1223.61	1225.7	1227.76	1229.79
333.15 K, x1 = 0.04781	850.98	853.34	855.7	860.18	864.49	868.61	872.54	876.32	879.95
333.15 K, x1 = 0.1026	926.85	928.81	930.83	934.71	938.46	942.07	945.55	948.89	952.14
333.15 K, x1 = 0.1977	1012.95	1014.54	1016.23	1019.48	1022.66	1025.73	1028.71	1031.6	1034.42
333.15 K, x1 = 0.2432	1042.28	1043.81	1045.4	1048.48	1051.51	1054.43	1057.29	1060.06	1062.76
333.15 K, x1 = 0.3026	1073.72	1075.11	1076.58	1079.47	1082.32	1085.07	1087.76	1090.37	1092.96
333.15 K, x1 = 0.3887	1108.15	1109.48	1110.88	1113.59	1116.27	1118.87	1121.41	1123.9	1126.35
333.15 K, x1 = 0.485	1136.7	1137.95	1139.28	1141.86	1144.4	1146.86	1149.29	1151.66	1153.97
333.15 K, x1 = 0.589	1159.94	1161.11	1162.35	1164.82	1167.24	1169.62	1171.94	1174.22	1176.46
333.15 K, x1 = 0.7289	1183.49	1184.59	1185.79	1188.13	1190.47	1192.77	1194.98	1197.18	1199.35
333.15 K, x1 = 0.8521	1198.51	1199.19	1200.35	1202.62	1204.87	1207.1	1209.26	1211.4	1213.49
333.15 K, x1 = 0.9397	1207.93	1209.04	1210.2	1212.45	1214.69	1216.87	1219.03	1221.13	1223.21
